Here are results for 2 compounds from US20220401415A1, “METHODS FOR TREATING NEUROLOGICAL DISORDERS WITH ALPHA1A-AR PARTIAL AGONISTS” (Curasen Therapeutics, Inc., priority 2019, published 2022).

Like-named read-outs stand apart in the source and are kept apart here.

Experiment [1] concerns the target T1, α1A-AR receptor (Homo sapiens, UniProt P35348).
T1 sequence (P35348 1-466): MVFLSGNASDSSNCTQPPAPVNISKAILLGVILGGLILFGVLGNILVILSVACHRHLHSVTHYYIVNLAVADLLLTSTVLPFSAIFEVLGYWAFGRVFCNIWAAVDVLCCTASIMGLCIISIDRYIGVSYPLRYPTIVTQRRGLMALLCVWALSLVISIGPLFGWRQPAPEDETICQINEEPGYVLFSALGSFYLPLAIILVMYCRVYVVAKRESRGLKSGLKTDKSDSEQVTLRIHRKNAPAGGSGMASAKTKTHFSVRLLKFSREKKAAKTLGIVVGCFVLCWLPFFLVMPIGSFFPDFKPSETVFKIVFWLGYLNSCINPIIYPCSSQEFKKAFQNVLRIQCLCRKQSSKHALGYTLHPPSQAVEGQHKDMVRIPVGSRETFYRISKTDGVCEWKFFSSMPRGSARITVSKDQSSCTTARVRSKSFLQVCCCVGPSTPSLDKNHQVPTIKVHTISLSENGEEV
The settings on record: as compared to noradrenaline; InsPs accumulation assay; Blue et al., Table 1; cited from earlier work.

For experiment [2], the target named is T1, α1A-AR receptor. The settings on record: as compared to noradrenaline; FLIPR assay; Blue et al., Table 1; cited from earlier work.
The subject of experiment [3] is neurogenic orthostatic hypotension (nOH) patients. As to the kind of experiment: Treatment of patients having nOH (Example 1). The settings on record: 5 mg oral tablets twice daily, follow-up after one week of treatment. Type of experiment: in vivo, human. The method, then:
Patients between the age of 40 and 80 years old that have been diagnosed with symptomatic orthostatic hypotension due to pure autonomic failure, multiple system atrophy or Parkinson's disease (i.e., PD plus symptoms) present for treatment. At the time of presentation, autonomic function testing is conducted to confirm the diagnosis of autonomic dysfunction including sinus arrhythmia and the Valsalva maneuver.
The patients are given 5 mg dabuzalgron oral tablets and are instructed to take one tablet shortly after waking up in the morning and a second tablet 4-6 hours later each day.
Some patients return for a follow-up visit after one week of treatment. […] In the follow-up visit supine systolic blood pressure (SSBP) may be determined.

Turning to `Cc1c(OCC2=NCCN2)ccc(Cl)c1NS(C)(=O)=O.Cl` [RO 115-1240 (dabuzalgron) HCl salt, N-[6-chloro-3-(4,5-dihydro-1H-imidazol-2-ylmethoxy)-2-methylphenyl]methanesulfonamide hydrochloride], the intrinsic activity at α1A-AR receptor [1] is reported as 0.27; on α1A-AR receptor [2], 0.51.
As to `Cc1c(OCC2=NCCN2)ccc(Cl)c1NS(C)(=O)=O` [RO 115-1240 (dabuzalgron) free base, N-[6-chloro-3-(4,5-dihydro-1H-imidazol-2-ylmethoxy)-2-methylphenyl]methanesulfonamide], the “symptoms of nOH as compared to the first visit” value in experiment [3] was “symptoms of nOH improve”. At α1A-AR receptor [1], the intrinsic activity was 0.31.
